Measurements: patent US10221163B2 (priority 2015, dated 2019)
Where two headings read alike, the source gives them in different places.

Tests used:
[1] = test system: Pseudomonas aeruginosa efflux− (MB9799), IMP-1; assay type: cell-based; conditions: C, D serine β-lactamase inhibitor closely related to relebactam; for P. aeruginosa expressing IMP-1, efflux − (MB9799) MITC95: concentration restoring susceptibility to imipenem at 2 μg/mL in the presence of a class A; for Concentration of metallo-β-lactamase inhibitor which restores susceptibility of efflux − (MB9799) strain to imipenem: imipenem at 2 μg/mL, in the presence of a class A
How it was run: (§1)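 PAO1 pair, broth microdilution; fixed β-lactam (imipenem/ceftazidime) at ~CLSI breakpoint + fixed class A/C BLI for AmpC; serial MBLi titration; endpoint = MBLi conc. restoring susceptibility; MB9798:MB9799 ratio = efflux liability.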

[2] = test system: Pseudomonas aeruginosa MB9798 vs MB9799
How it was run: as §1

[3] = test system: Pseudomonas aeruginosa efflux+ (MB9798), IMP-1; assay type: cell-based; parameters: Concentration of metallo-β-lactamase inhibitor which restores susceptibility of efflux + (MB9798) strain to imipenem: unit not given here; conditions: C, D serine β-lactamase inhibitor closely related to relebactam; for P. aeruginosa expressing IMP-1, efflux + (MB9798) MITC95: concentration restoring susceptibility to imipenem at 2 μg/mL in the presence of a class A; for Concentration of metallo-β-lactamase inhibitor which restores susceptibility of efflux + (MB9798) strain to imipenem: imipenem at 2 μg/mL, in the presence of a class A
How it was run: as §1

NDM-1 = NDM-1 (Klebsiella pneumoniae, UniProt C7C422); assay: biochemical; assay type: biochemical; conditions: fluorescence assay, CCF2-FA substrate, 1 pM enzyme, 2 hours at 25° C.; read-out: NDM-1 IC50
Chain of NDM-1 (C7C422 whole entry, looked up, species assumed): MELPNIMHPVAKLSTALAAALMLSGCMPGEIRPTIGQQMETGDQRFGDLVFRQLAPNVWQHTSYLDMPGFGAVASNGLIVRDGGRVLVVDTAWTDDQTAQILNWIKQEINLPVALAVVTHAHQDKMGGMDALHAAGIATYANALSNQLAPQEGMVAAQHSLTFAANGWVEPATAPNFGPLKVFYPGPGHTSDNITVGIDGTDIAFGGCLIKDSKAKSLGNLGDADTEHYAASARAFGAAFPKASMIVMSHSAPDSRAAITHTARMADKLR
How it was run: (§2)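 IC50 values derive from 4-parameter fits of percent inhibition against inhibitor concentration on semi-log axes. Activity was monitored by fluorescence with the CCF2-FA substrate after a 2-hour, 25° C incubation of compound, enzyme and substrate.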

IMP-1 = IMP-1 (Serratia marcescens, UniProt P52699); assay: biochemical; assay type: biochemical; conditions: fluorescence assay, CCF2-FA substrate, 2 pM enzyme, 2 hours at 25° C.; read-out: IMP-1 IC50
Chain of IMP-1 (P52699 whole entry, looked up, species assumed): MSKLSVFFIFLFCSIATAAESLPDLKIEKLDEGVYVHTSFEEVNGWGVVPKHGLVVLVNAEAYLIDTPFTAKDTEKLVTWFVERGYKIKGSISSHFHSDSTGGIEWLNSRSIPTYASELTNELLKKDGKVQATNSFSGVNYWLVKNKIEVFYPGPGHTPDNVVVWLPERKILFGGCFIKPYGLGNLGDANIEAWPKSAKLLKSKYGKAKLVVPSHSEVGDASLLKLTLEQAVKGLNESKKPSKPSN
How it was run: as §2

VIM-1 = VIM-1 (Pseudomonas aeruginosa (strain ATCC 15692 / DSM 22644 / CIP 104116 / JCM 14847 / LMG 12228 / 1C / PRS 101 / PAO1), UniProt A0A0F7KYQ8); assay: biochemical; conditions: CCF2-FA substrate, 30 pM enzyme, 2 hours at 25° C.
How it was run: as §2

[4] = test system: Serratia marcescens expressing IMP-1 (CL5741); assay type: cell-based; conditions: for Serratia marcescens expressing IMP-1 (CL5741) MITC95: with imipenem 1 μg/ml, 95% inhibition of bacterial growth; for Serratia marcescens MITC95: IMP-1 strain CL5741, with imipenem 1 μg/ml, 95% inhibition of growth
How it was run: (§3)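 Clinical strains grown overnight on blood agar at 35°C, colonies suspended in saline, diluted 1:100 into 1.1×CAMHB. Test compound titrated with imipenem at 1 μg/ml; incubated 22–24 h at 35°C, growth read by absorbance.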

[5] = test system: Escherichia coli expressing NDM-1 (CLB30005, CLB30016); assay type: cell-based; conditions: with imipenem 1 μg/ml; for Escherichia coli expressing NDM-1 (CLB30016) MITC95: 95% inhibition of bacterial growth; for Escherichia coli MITC95: NDM-1 strain, 95% inhibition of growth
How it was run: as §3

[6] = test system: Klebsiella pneumoniae expressing VIM-1 (IHMA599644); assay type: cell-based; conditions: for Klebsiella pneumoniae expressing VIM-1 (IHMA599644) MITC95: with imipenem 1 μg/ml, 95% inhibition of bacterial growth; for Klebsiella pneumoniae MITC95: VIM-1 strain IHMA599644, with imipenem 1 μg/ml, 95% inhibition of growth
How it was run: as §3

[7] = ratio MITC95 PA_9798/MITC95 PA_9799
[8] = fluorescence assay, read-out: VIM-1 IC50
[9] = fold difference between efflux+ (MB9798) and efflux− (MB9799) strains, imipenem at 2 μg/mL

| SMILES | P. aeruginosa expressing IMP-1, efflux − (MB9799) MITC95 [1] [µM] | Efflux ratio [2, 7] | P. aeruginosa expressing IMP-1, efflux + (MB9798) MITC95 [3] [µM] | IC50 (NDM-1) [nM] | IC50 (IMP-1) [nM] | IC50 (VIM-1; VIM-1 IC50, fluorescence assay) [nM] | Serratia marcescens expressing IMP-1 (CL5741) MITC95 [4] [µM] | Escherichia coli expressing NDM-1 (CLB30016) MITC95 [5] [µM] | Klebsiella pneumoniae expressing VIM-1 (IHMA599644) MITC95 [6] [µM] | IC50 (VIM-1; [8]) [nM] | Concentration of metallo-β-lactamase inhibitor which restores susceptibility of efflux − (MB9799) strain to imipenem [1] | Efflux ratio [2, 9] | Concentration of metallo-β-lactamase inhibitor which restores susceptibility of efflux + (MB9798) strain to imipenem [3] | Serratia marcescens MITC95 [4] [µM] | Escherichia coli MITC95 [5] [µM] | Klebsiella pneumoniae MITC95 [6] [µM] |
| --- | --- | --- | --- | --- | --- | --- | --- | --- | --- | --- | --- | --- | --- | --- | --- | --- |
| Nc1nc2c(-c3ccc(S(=O)(=O)N[C@H]4CNC[C@H]4O)c(S(N)(=O)=O)c3-c3nnn[nH]3)cccc2[nH]1 [Example 168, 4-(2-amino-1H-benzo[d]imidazol-4-yl)-N^1-((3S,4R)-4-hydroxypyrrolidin-3-yl)-3-(1H-tetrazol-5-yl)benzene-1,2-disulfonamide] | 0.543 | 0.70 | 0.3828 | 0.0515 | 0.544 | 0.16 | 0.668 | 0.375 | 0.8906 |  |  |  |  |  |  |  |
| Nc1nc2c(-c3ccc(S(=O)(=O)NCC4(O)CCNCC4)c(S(N)(=O)=O)c3-c3nnn[nH]3)cccc2s1 [Example 86, 4-(2-aminobenzo[d]thiazol-4-yl)-N^1-((4-hydroxypiperidin-4-yl)methyl)-3-(1H-tetrazol-5-yl)benzene-1,2-disulfonamide] | 1.563 | 0.50 | 0.7813 | 0.0275 | 0.129 |  | 1.563 | 1.563 | 6.25 | 0.0756 |  |  |  |  |  |  |
| NC[C@@H](CO)NS(=O)(=O)c1ccc(-c2ccc(N)nc2)c(-c2nn[nH]n2)c1S(N)(=O)=O [Example 409] |  |  |  | 0.112 | 0.17 |  |  |  |  | 0.184 | 1.563 | 1.00 | 1.563 | 1.563 | 0.1953 | 3.125 |
| NC[C@H](N)CNS(=O)(=O)c1ccc(-c2cccc(-c3c[nH]c(N)n3)c2)c(-c2nn[nH]n2)c1S(N)(=O)=O [Example 434] |  |  |  | 0.2 | 1.53 |  |  |  |  | 0.337 | 0.7813 | 2.00 | 1.563 | 1.563 | 0.7813 | 1.563 |
| NCCNS(=O)(=O)c1ccc(-c2cccc3ccc(N)nc23)c(-c2nn[nH]n2)c1S(N)(=O)=O [Example 355, N1-(2-aminoethyl)-4-(2-aminoquinolin-8-yl)-3-(2H-tetrazol-5-yl)benzene-1,2-disulfonamide] | 0.7813 | 1.00 | 0.7813 | 0.0509 | 0.2 | 0.141 |  |  |  |  |  |  |  | 0.7813 | 0.1953 | 1.563 |
| Nc1ncccc1-c1ccc(S(=O)(=O)NC[C@@H](N)CO)c(S(N)(=O)=O)c1-c1nn[nH]n1 [Example 214, (R)-N1-(2-amino-3-hydroxypropyl)-4-(2-amino-pyridin-3-yl)-3-(2H-tetrazol-5-yl)benzene-1,2-disulfonamide] | 1.563 | 8.00 | 12.5 | 0.566 | 8.49 |  | 1.563 | 0.7813 | 3.125 | 0.732 |  |  |  |  |  |  |
| C[C@H](N)CNS(=O)(=O)c1ccc(-c2cccc3sc(N)nc23)c(-c2nnn[nH]2)c1S(N)(=O)=O.O=CO [Example 127, (S)-4-(2-aminobenzo[d]thiazol-4-yl)-N1-(2-aminopropyl)-3-(1H-tetrazol-5-yl)benzene-1,2-disulfonamide, formate salt] | 1.563 | 1.00 | 1.563 | 0.0421 | 0.322 | 0.236 | 1.563 | 3.125 | 3.125 |  |  |  |  |  |  |  |
| C[C@H](N)CC(=O)NS(=O)(=O)c1ccc(-c2cccc3[nH]c(N)nc23)c(-c2nn[nH]n2)c1S(N)(=O)=O [Example 208, (S)-3-amino-N-((4-(2-amino-1H-benzo[d]imidazol-4-yl)-2-sulfamoyl-3-(2H-tetrazol-5-yl)phenyl)sulfonyl)butanamide] | 3.125 | 1.00 | 3.125 | 0.449 | 3.12 |  | 3.125 | 1.563 | 6.25 | 1.23 |  |  |  |  |  |  |
| NCCNC(=O)c1cccc(-c2ccc(S(=O)(=O)NCCN)c(S(N)(=O)=O)c2-c2nn[nH]n2)c1 [Example 334, N-(2-aminoethyl)-4′-(N-(2-aminoethyl)sulfamoyl)-3′-sulfamoyl-2′-(2H -tetrazol-5-yl)-[1,1′-biphenyl]-3-carboxamide] | 0.7813 | 2.00 | 1.563 | 1.32 | 4.6 |  |  |  |  | 0.247 |  |  |  | 0.7813 | 0.3906 | 0.7813 |
| NS(=O)(=O)c1c(S(=O)(=O)N[C@@H]2CCNC2)ccc(-c2ccc3c(c2)C(=O)NC3)c1-c1nnn[nH]1 [Example 138, (R)-4-(3-oxoisoindolin-5-yl)-N1-(pyrrolidin-3-yl)-3-(1H-tetrazol-5-yl)benzene-1,2-disulfonamide] | 1.563 | 1.00 | 1.563 | 0.124 | 0.275 |  | 3.125 | 3.125 | 3.125 | 0.15 |  |  |  |  |  |  |
